Assay results taken from ChEMBL document CHEMBL1201862, “PubChem BioAssay data set” (2004).
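Tested at 5 concentrations; 48 h exposure; 96-well plates; endpoints linearly interpolated, else capped at highest concentration. GI50 = concentration required for 50% inhibition of growth.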 Active and inactive are the calls of the source. Cut-off read from the data, not from the text of the source: active = GI50 up to about 1.1 µM and inactive = higher.

Columns and labels:
Test in all cases: DTP human tumour cell line panel, 48 h
HCC 2998 = system: HCC 2998
A549 = system: A549
SF-539 = system: SF-539
SK-MEL-28 = system: SK-MEL-28
BT-549 = system: BT-549
SN12C = system: SN12C
SNB-75 = system: SNB-75
SR = system: SR
RXF 393 = system: RXF 393
HOP-62 = system: HOP-62
SW-620 = system: SW-620
HOP-92 = system: HOP-92
NCI/ADR-RES = system: NCI/ADR-RES
MOLT-4 = system: MOLT-4
TK-10 = system: TK-10
EKVX = system: EKVX
786-0 = system: 786-0
SK-OV-3 = system: SK-OV-3
SK-MEL-2 = system: SK-MEL-2

## CCCCC1=CC1(C#N)[N+](=O)[O-] (centres undefined)
HCC 2998
  GI50: > 100 µM (inactive)
A549
  GI50: > 100 µM (inactive)
SF-539
  GI50: > 100 µM (inactive)
SK-MEL-28
  GI50: > 100 µM (inactive)
BT-549
  GI50: 40.6 µM (inactive)
SN12C
  GI50: 90.8 µM (inactive)
SNB-75
  GI50: 39.9 µM (inactive)
SR
  GI50: 33.3 µM (inactive)
RXF 393
  GI50: > 100 µM (inactive)
HOP-62
  GI50: > 100 µM (inactive)
SW-620
  GI50: 31.8 µM (inactive)
HOP-92
  GI50: 48.9 µM (inactive)
NCI/ADR-RES
  GI50: > 100 µM (inactive)
MOLT-4
  GI50: 23.3 µM (inactive)
TK-10
  GI50: > 100 µM (inactive)
EKVX
  GI50: > 100 µM (inactive)
786-0
  GI50: 72.4 µM (inactive)
SK-OV-3
  GI50: > 100 µM (inactive)

## CCN(CCCl)CCCCNc1c2ccccc2nc2ccc(OC)cc12
A549
  GI50: 0.177 µM (active)
SF-539
  GI50: 0.653 µM (active)
SK-MEL-28
  GI50: 1.58 µM (inactive)
BT-549
  GI50: 1.38 µM (inactive)
SN12C
  GI50: < 0.023 µM (active)
SNB-75
  GI50: 0.472 µM (active)
SR
  GI50: < 0.01 µM (active)
RXF 393
  GI50: 0.238 µM (active)
HOP-62
  GI50: 0.439 µM (active)
SK-MEL-2
  GI50: 0.662 µM (active)
SW-620
  GI50: 0.0664 µM (active)
HOP-92
  GI50: 0.18 µM (active)
NCI/ADR-RES
  GI50: 4.25 µM (inactive)
MOLT-4
  GI50: < 0.01 µM (active)
TK-10
  GI50: 0.92 µM (active)
EKVX
  GI50: 0.723 µM (active)
786-0
  GI50: 0.157 µM (active)
SK-OV-3
  GI50: 1.24 µM (inactive)

## O=C(c1ccco1)C1CC(c2ccc3ccccc3c2O)=NN1c1ccc([N+](=O)[O-])cc1[N+](=O)[O-] (centres undefined)
HCC 2998
  GI50: 27.7 µM (inactive)
A549
  GI50: 22.3 µM (inactive)
SF-539
  GI50: 28 µM (inactive)
SK-MEL-28
  GI50: 40.6 µM (inactive)
BT-549
  GI50: 29.7 µM (inactive)
SN12C
  GI50: 32.8 µM (inactive)
SNB-75
  GI50: 12.5 µM (inactive)
SR
  GI50: 1.01 µM (active)
RXF 393
  GI50: 29.9 µM (inactive)
HOP-62
  GI50: 33.3 µM (inactive)
SK-MEL-2
  GI50: 24.5 µM (inactive)
SW-620
  GI50: 34.5 µM (inactive)
HOP-92
  GI50: 12.4 µM (inactive)
NCI/ADR-RES
  GI50: 21.1 µM (inactive)
MOLT-4
  GI50: 1.71 µM (inactive)
TK-10
  GI50: 30 µM (inactive)
786-0
  GI50: 31 µM (inactive)
SK-OV-3
  GI50: 28.1 µM (inactive)

## Cc1cc2cc3c(Cl)c(CCCl)c(C)nc3cc2c(Cl)c1CCCl
HCC 2998
  GI50: 17.5 µM (inactive)
A549
  GI50: 17.8 µM (inactive)
SF-539
  GI50: 12.1 µM (inactive)
SK-MEL-28
  GI50: 18 µM (inactive)
BT-549
  GI50: 19.9 µM (inactive)
SNB-75
  GI50: 17 µM (inactive)
SR
  GI50: 11.3 µM (inactive)
RXF 393
  GI50: 4.33 µM (inactive)
HOP-62
  GI50: 13.8 µM (inactive)
SW-620
  GI50: 24.8 µM (inactive)
HOP-92
  GI50: 13.9 µM (inactive)
NCI/ADR-RES
  GI50: 22.9 µM (inactive)
MOLT-4
  GI50: 16 µM (inactive)
TK-10
  GI50: 23.6 µM (inactive)
EKVX
  GI50: 2.87 µM (inactive)
786-0
  GI50: 24.5 µM (inactive)

## Nc1ccnc2c1ncn2[C@H]1C[C@H](O)[C@@H](CO)O1
HCC 2998
  GI50: > 100 µM (inactive)
A549
  GI50: > 100 µM (inactive)
SF-539
  GI50: > 100 µM (inactive)
SK-MEL-28
  GI50: > 100 µM (inactive)
BT-549
  GI50: > 100 µM (inactive)
SN12C
  GI50: > 100 µM (inactive)
SNB-75
  GI50: > 100 µM (inactive)
SR
  GI50: > 100 µM (inactive)
RXF 393
  GI50: > 100 µM (inactive)
HOP-62
  GI50: > 100 µM (inactive)
SK-MEL-2
  GI50: > 100 µM (inactive)
SW-620
  GI50: > 100 µM (inactive)
HOP-92
  GI50: > 100 µM (inactive)
NCI/ADR-RES
  GI50: > 100 µM (inactive)
MOLT-4
  GI50: > 100 µM (inactive)
TK-10
  GI50: > 100 µM (inactive)
EKVX
  GI50: > 100 µM (inactive)
786-0
  GI50: > 100 µM (inactive)

## CCOC(=O)NC(OC)(C(F)(F)F)C(F)(F)F
HCC 2998
  GI50: > 100 µM (inactive)
A549
  GI50: > 100 µM (inactive)
SF-539
  GI50: > 100 µM (inactive)
SK-MEL-28
  GI50: > 100 µM (inactive)
BT-549
  GI50: > 100 µM (inactive)
SNB-75
  GI50: > 100 µM (inactive)
SR
  GI50: > 100 µM (inactive)
RXF 393
  GI50: > 100 µM (inactive)
HOP-62
  GI50: > 100 µM (inactive)
SW-620
  GI50: > 100 µM (inactive)
HOP-92
  GI50: > 100 µM (inactive)
NCI/ADR-RES
  GI50: > 100 µM (inactive)
MOLT-4
  GI50: > 100 µM (inactive)
TK-10
  GI50: > 100 µM (inactive)
EKVX
  GI50: > 100 µM (inactive)
786-0
  GI50: > 100 µM (inactive)
SK-OV-3
  GI50: 46.9 µM (inactive)

## O=C(CSc1nccc(=O)[nH]1)c1ccccc1
A549
  GI50: > 100 µM (inactive)
SF-539
  GI50: 39.8 µM (inactive)
SK-MEL-28
  GI50: > 100 µM (inactive)
BT-549
  GI50: > 100 µM (inactive)
SN12C
  GI50: 49.9 µM (inactive)
SNB-75
  GI50: > 100 µM (inactive)
SR
  GI50: > 100 µM (inactive)
RXF 393
  GI50: > 100 µM (inactive)
HOP-62
  GI50: 63.1 µM (inactive)
SK-MEL-2
  GI50: > 100 µM (inactive)
SW-620
  GI50: > 100 µM (inactive)
HOP-92
  GI50: > 100 µM (inactive)
NCI/ADR-RES
  GI50: 37.2 µM (inactive)
MOLT-4
  GI50: > 100 µM (inactive)
TK-10
  GI50: > 100 µM (inactive)
EKVX
  GI50: > 100 µM (inactive)
786-0
  GI50: > 100 µM (inactive)
SK-OV-3
  GI50: > 100 µM (inactive)

## O=C(OCc1ccccc1)N1CCNCCNCC1
HCC 2998
  GI50: > 100 µM (inactive)
A549
  GI50: > 100 µM (inactive)
SF-539
  GI50: > 100 µM (inactive)
SK-MEL-28
  GI50: > 100 µM (inactive)
BT-549
  GI50: > 100 µM (inactive)
SN12C
  GI50: > 100 µM (inactive)
SR
  GI50: > 100 µM (inactive)
RXF 393
  GI50: > 100 µM (inactive)
HOP-62
  GI50: > 100 µM (inactive)
SK-MEL-2
  GI50: > 100 µM (inactive)
SW-620
  GI50: > 100 µM (inactive)
HOP-92
  GI50: > 100 µM (inactive)
NCI/ADR-RES
  GI50: > 100 µM (inactive)
MOLT-4
  GI50: > 100 µM (inactive)
TK-10
  GI50: > 100 µM (inactive)
EKVX
  GI50: > 100 µM (inactive)
786-0
  GI50: > 100 µM (inactive)

## NC1C2C(CC(=O)O)OCC=C3CN4CCC1(C(=O)C(=O)O)C4CC32 (centres undefined)
A549
  GI50: > 100 µM (inactive)
SF-539
  GI50: > 100 µM (inactive)
SK-MEL-28
  GI50: > 100 µM (inactive)
BT-549
  GI50: > 100 µM (inactive)
SN12C
  GI50: > 100 µM (inactive)
SNB-75
  GI50: > 100 µM (inactive)
SR
  GI50: > 100 µM (inactive)
RXF 393
  GI50: > 100 µM (inactive)
HOP-62
  GI50: > 100 µM (inactive)
SK-MEL-2
  GI50: > 100 µM (inactive)
SW-620
  GI50: > 100 µM (inactive)
HOP-92
  GI50: > 100 µM (inactive)
NCI/ADR-RES
  GI50: > 100 µM (inactive)
MOLT-4
  GI50: > 100 µM (inactive)
TK-10
  GI50: > 100 µM (inactive)
EKVX
  GI50: > 100 µM (inactive)
786-0
  GI50: > 100 µM (inactive)
SK-OV-3
  GI50: > 100 µM (inactive)

## CC(=O)N1N=C(c2ccc3ccccc3c2O)CC1c1ccc(Cl)cc1Cl (centres undefined)
HCC 2998
  GI50: > 100 µM (inactive)
A549
  GI50: 25.1 µM (inactive)
SF-539
  GI50: 18.1 µM (inactive)
SK-MEL-28
  GI50: 93.1 µM (inactive)
BT-549
  GI50: > 100 µM (inactive)
SN12C
  GI50: 19.6 µM (inactive)
SNB-75
  GI50: > 100 µM (inactive)
SR
  GI50: 5.21 µM (inactive)
RXF 393
  GI50: 30.3 µM (inactive)
HOP-62
  GI50: 31.9 µM (inactive)
SK-MEL-2
  GI50: > 100 µM (inactive)
SW-620
  GI50: 26.9 µM (inactive)
HOP-92
  GI50: 54.6 µM (inactive)
NCI/ADR-RES
  GI50: 57.7 µM (inactive)
MOLT-4
  GI50: 7.67 µM (inactive)
TK-10
  GI50: 52.7 µM (inactive)
786-0
  GI50: 18.9 µM (inactive)
SK-OV-3
  GI50: > 100 µM (inactive)

## CN(CCC(=O)O)S(=O)(=O)c1ccccc1
A549
  GI50: > 100 µM (inactive)
SF-539
  GI50: > 100 µM (inactive)
SK-MEL-28
  GI50: > 100 µM (inactive)
BT-549
  GI50: > 100 µM (inactive)
SN12C
  GI50: > 100 µM (inactive)
SNB-75
  GI50: 80.2 µM (inactive)
SR
  GI50: > 100 µM (inactive)
RXF 393
  GI50: > 100 µM (inactive)
HOP-62
  GI50: > 100 µM (inactive)
SK-MEL-2
  GI50: > 100 µM (inactive)
SW-620
  GI50: > 100 µM (inactive)
HOP-92
  GI50: > 100 µM (inactive)
NCI/ADR-RES
  GI50: > 100 µM (inactive)
MOLT-4
  GI50: > 100 µM (inactive)
TK-10
  GI50: > 100 µM (inactive)
EKVX
  GI50: > 100 µM (inactive)
786-0
  GI50: > 100 µM (inactive)
SK-OV-3
  GI50: > 100 µM (inactive)
